The results in this text go back to US9499570B2, “Boron containing small molecules” (priority 2010, dated 2016).

In one assay the test system is Brugia malayi. Briefly: Brugia malayi in vitro assay, adult female worms. The conditions noted are these: 50 uM. The protocol: Adult female worms are shipped from TRS Labs Inc. (Nonglak Supakorndej, Lab Director, 295 Research Dr., Athens, Ga. 30605; 706-549-0764) via Fed Ex. Individual worms are shipped in 2 mls vials with RPMI on Mondays and arrive at the […] Center lab on Tuesday mornings. Individual worms are poured into each well (24-well tissue culture plates) to avoid handling worms since they are very delicate and easily broken. Transport media is removed and replaced with 0.5 mls of RPMI-1640 (25 mM HEPES, 2 g/L NaHCO3, Antibiotic/Antimycotic, 5% HI FBS). Worms are maintained in a 37° C. 5% CO2 incubator. Compounds are added directly to each duplicate well (5 ul of 5 mM for a final concentration of 50 uM). DMSO (5 ul) is used as a negative control and Ivermectin (Sigma) is used as a positive control at 100 uM/well and 20 uM/well. Adult filarial nematodes can shed/give birth to microfilarial worms (mf) during the course of the assay. Wells were reviewed for the presence of mf, and the viability of mf, by visual observation of the well on the last day of observation (Day 7). Plates are examined once a day for 4-7 days. […] If changes are observed, worms are more closely examined under a dissecting microscope.

The test system of assay [1] is Schistosoma mansoni schistosomula. Put plainly: Schistosoma mansoni schistosomula phenotype screen in vitro. The conditions noted are these: Second Set, 5 uM, listed as 6-(1-Hydroxy-1,3-dihydro-benzo[c][1,2]oxaborol-5-yloxy)-2-(4-oxo-pentyloxy)-5-ch.
Assay [2] relates to Schistosoma mansoni adult worms. Put plainly: Schistosoma mansoni adult worm phenotype screen in vitro. Conditions: Second Set, 5 uM. The source says: Puerto Rican isolates of S. mansoni using Biomphalaria glabrata snails and golden hamsters as intermediate and definitive hosts, respectively, were maintained and handled in the University of California-San Francisco Sandler Center for Tropical Medicine. Patent B. glabrata snails (6-8 weeks after exposure to 5-10 infectious miracidia) were induced to shed infective larvae (cercariae) under light stimulus into the surrounding water. Cercariae were washed in rounds of ice-cold water and concentrated through and over sieves of varying pore sizes. They were then mechanically sheared (separation of heads from tails) as described in Colley D G, et al. Exp Parasitol 1974, 35:44-51, in ice-cold Incomplete Medium 169 (as described in Basch P F. J Parasitol 1981, 67:179-185, minus FBS and antibiotics) by passing 15 times through a double headed 22-gauge syringe needle connected to two 10 mL syringes. The resulting cercarial heads (schistosomula) were separated from their tails by swirling in a petri dish. Concentrated schistosomula were added to a sterile 1.5 mL centrifuge tube and allowed to settle over ice. Schistosomula were transferred to a sterile environment and washed 4 times in Incomplete Medium 169 prior to plating.
Two sets of screening were performed. In the first set, compounds were screened against schistosomula and observations were made at 24 hours, 2 days, 3 days, 4 days, and 6 days. In the second set, compounds were screened against schistosomula with observations at 24 hours, 2 days, 3 days, and 4 days and adult worms at 7 hours, 24 hours, 4 days, and 6 days.
Given the delicacy and size (0.5-1.5 cm in length) of this stage all operations were performed manually by the Sandler Center. 24-well plates were set up with compound (final DMSO concentration=0.5%) containing approximately 5 pairs of worms (S. mansoni has separate sexes) in 2 mL complete Basch medium per well. Plates were maintained at 37° C. in a 5% CO2 atmosphere. All compounds were tested in duplicate with at least two experimental replicates.
A semi-quantitative and controlled nomenclature for phenotypes that can arise as a result of compound insult to both schistosomula and adults was utilized (Abdulla M H, et al., PLoS Negl Trop Dis 2009, 3:e478). Phenotypes were recorded by visual inspection and on a flexible time basis but at least at 24 h and 4 day time-points in the case of large scale screening. […] To help eliminate bias, two screen analysts scored phenotypes ‘blind’ both to knowledge of the contents of each screening plate and the phenotypes scored by his/her colleague. Upon completing their individual assessments, each analyst's ‘hit sheet’ was then compared to derive a ‘consensus hit sheet’. Discrepancies in analysts' hit sheets were re-evaluated under the microscope to eventually make a consensus hit call.
Hyper-coiled and coiled represent a verbal description of the visual phenotype as compared to the DMSO control. The + and ++ and +++ means more of the phenotype which preceded it. The − means less of the phenotype which preceded it. Results

SMILES strings stand for the structures. Entries after “also recorded” stand apart in the source; their conditions may differ.

Take `CC(C)OCCOc1nc(Oc2ccc3c(c2)COB3O)ccc1C#N` [6-(1-hydroxy-1,3-dihydrobenzo[c][1,2]oxaborol-5-yloxy)-2-(4-isopropoxyethoxy)nicotinonitrile]: in the assay on Brugia malayi (trial one), the “Presence and viability of microfilarial worms (mf) Day 7” value (shortened to “Presence and viability”) was “mf and alive”; the “Worm activity / phenotype Day 1” value was “hyper-; also recorded: coiled”; the “Worm activity / phenotype Day 3” value was “hyper-; also recorded: coiled”; the “Worm activity / phenotype Day 7” value was 0, and coiled. Besides, in the assay on Brugia malayi (trial two), the “Presence and viability” value was “no mf and obs”; the “Worm activity / phenotype Day 1” value is recorded as “hyper-; also recorded: coiled”; the “Worm activity / phenotype Day 2” value is “hyper-; also recorded: coiled”; the “Worm activity / phenotype Day 3” value is given as 4 (4=highly active (controls)). Moreover, the “Worm activity / phenotype Day 7” value in the assay with Brugia malayi (trial two) was 0, and coiled.

`CC(=O)CCCOc1nc(Oc2ccc3c(c2)COB3O)c(Cl)cc1C#N` [D231, 5-Chloro-6-(1-hydroxy-1,3-dihydrobenzo[c][1,2]oxaborol-5-yloxy)-2-(4-oxopentyloxy)nicotinonitrile]: in the assay with Brugia malayi (trial one), the “Presence and viability” value was “no mf and obs”; the “Worm activity / phenotype Day 1” value is recorded as “hyper-; also recorded: coiled”; the “Worm activity / phenotype Day 2” value was “hyper-; also recorded: coiled”; the “Worm activity / phenotype Day 7” value is 0, and coiled. In the assay with Brugia malayi (trial two), the “Presence and viability” value is “no mf and obs”; the “Worm activity / phenotype Day 1” value is “hyper-; also recorded: coiled”; the “Worm activity / phenotype Day 2” value is recorded as “hyper-; also recorded: coiled”; the “Worm activity / phenotype Day 7” value was 0, and coiled. In assay [1] (24 h), the “Schistosomula (juvenile infective form) worm screen phenotype 24 h” value is listed as “R, O++,; also recorded: some deg-m”. Further, the “Schistosomula (juvenile infective form) worm screen phenotype 2 d” value in assay [1] (2 d) was “O++, and R−, and more and deg-M”. For the same molecule, the “Schistosomula (juvenile infective form) worm screen phenotype 3 d” value in assay [1] (3 d) is on record as “O++, R−,; also recorded: more deg-M”. Besides, the “Schistosomula (juvenile infective form) worm screen phenotype 4 d” value in assay [1] (4 d) is on record as “O++, R−,; also recorded: more deg-M”. Further, the “Adult worm screen phenotype 7 h” value in assay [2] (7 h, listed as 6-(1-Hydroxy-1,3-dihydro-benzo[c][1,2]oxaborol-5-yloxy)-2-(4-oxo-pentyloxy)-5-ch) is on record as “O+++,; also recorded: Sex sep (Sex sep=worm pairs have separated); also recorded: (violent; also recorded: motion)”. For the same molecule, the “Adult worm screen phenotype 24 h” value in assay [2] (24 h, listed as 6-(1-Hydroxy-1,3-dihydro-benzo[c][1,2]oxaborol-5-yloxy)-2-(4-oxo-pentyloxy)-5-ch) was “O+++, Sex; also recorded: sep (violent; also recorded: motion)”. For the same molecule, in assay [2] (4 d, listed as 6-(1-Hydroxy-1,3-dihydro-benzo[c][1,2]oxaborol-5-yloxy)-2-(4-oxo-pentyloxy)-5-ch), the “Adult worm screen phenotype 4 d” value is reported as “O++, sex; also recorded: sep on sides,; also recorded: males dark”. In addition, the “Adult worm screen phenotype 6 d*” value in assay [2] (6 d) was “Dark, S”.
